± gives the expanded uncertainty stated by the source.
Assay: xn = mol fraction of the nth substance listed
Conditions: Gas, isochoric method

[N-]=[N+]=O [nitrous oxide] + O=C=O
Conditions	molar volume [m3/mol]
238.1 K, 1004.5 kPa, x2 = 0.5959	0.001705 ± 3e-06
238.1 K, 1194.6 kPa, x2 = 0.6953	0.001286 ± 3e-06
243.07 K, 1032.4 kPa, x2 = 0.5959	0.001705 ± 3e-06
243.09 K, 1317 kPa, x2 = 0.6953	0.001286 ± 3e-06
248.05 K, 1059.7 kPa, x2 = 0.5959	0.001706 ± 3e-06
248.11 K, 1355.8 kPa, x2 = 0.6953	0.001286 ± 3e-06
253.04 K, 1086.8 kPa, x2 = 0.5959	0.001706 ± 3e-06
253.1 K, 1393.5 kPa, x2 = 0.6953	0.001287 ± 3e-06
258.09 K, 2081.3 kPa, x2 = 0.1499	0.000805 ± 2e-06
258.11 K, 1431.2 kPa, x2 = 0.6953	0.001287 ± 3e-06
263.02 K, 2626.7 kPa, x2 = 0.9071	0.000638 ± 1e-06
263.06 K, 2148.3 kPa, x2 = 0.1499	0.000805 ± 2e-06
263.08 K, 1140.7 kPa, x2 = 0.5959	0.001707 ± 3e-06
263.08 K, 1469 kPa, x2 = 0.6953	0.001287 ± 3e-06
263.09 K, 2245.7 kPa, x2 = 0.2607	0.000759 ± 2e-06
263.1 K, 2436.3 kPa, x2 = 0.4754	0.000668 ± 1e-06
268.02 K, 2719.9 kPa, x2 = 0.9071	0.000635 ± 1e-06
268.03 K, 2212.6 kPa, x2 = 0.1499	0.000806 ± 2e-06
268.04 K, 1168.2 kPa, x2 = 0.5959	0.001707 ± 3e-06
268.05 K, 1505.5 kPa, x2 = 0.6953	0.001287 ± 3e-06
268.08 K, 2515.8 kPa, x2 = 0.4754	0.000669 ± 1e-06
268.08 K, 2813.7 kPa, x2 = 0.3585	0.000579 ± 1e-06
268.08 K, 2907.1 kPa, x2 = 0.7478	0.000559 ± 1e-06
272.93 K, 1194.4 kPa, x2 = 0.5959	0.001708 ± 3e-06
272.93 K, 3330.4 kPa, x2 = 0.6929	0.000486 ± 1e-06
272.94 K, 1541.4 kPa, x2 = 0.6953	0.001288 ± 3e-06
272.95 K, 2909.1 kPa, x2 = 0.3585	0.00058 ± 1e-06
272.98 K, 3090.5 kPa, x2 = 0.0902	0.000512 ± 1e-06
273.04 K, 2808.9 kPa, x2 = 0.9071	0.000636 ± 1e-06
273.05 K, 2384.1 kPa, x2 = 0.2607	0.000759 ± 2e-06
273.06 K, 3007.9 kPa, x2 = 0.7478	0.000559 ± 1e-06
273.07 K, 2593.6 kPa, x2 = 0.4754	0.000669 ± 1e-06
273.12 K, 2276.8 kPa, x2 = 0.1499	0.000806 ± 2e-06
277.82 K, 3196.6 kPa, x2 = 0.0902	0.000513 ± 1e-06
277.86 K, 3791 kPa, x2 = 0.6099	0.000401 ± 1e-06
277.87 K, 3104 kPa, x2 = 0.7478	0.000559 ± 1e-06
277.94 K, 3453.5 kPa, x2 = 0.6929	0.000486 ± 1e-06
282.66 K, 3300.1 kPa, x2 = 0.0902	0.000513 ± 1e-06
282.82 K, 2743.7 kPa, x2 = 0.4754	0.000669 ± 1e-06
282.82 K, 3939.5 kPa, x2 = 0.6099	0.000401 ± 1e-06
282.83 K, 1245.4 kPa, x2 = 0.5959	0.001708 ± 3e-06
282.83 K, 1612.9 kPa, x2 = 0.6953	0.001288 ± 3e-06
282.83 K, 4250.2 kPa, x2 = 0.8378	0.00036 ± 1e-06
282.84 K, 3094.9 kPa, x2 = 0.3585	0.00058 ± 1e-06
282.9 K, 2980 kPa, x2 = 0.9071	0.000636 ± 1e-06
283.01 K, 2401.3 kPa, x2 = 0.1499	0.000806 ± 2e-06
283.01 K, 2518.2 kPa, x2 = 0.2607	0.000759 ± 2e-06
283.01 K, 3203.9 kPa, x2 = 0.7478	0.00056 ± 1e-06
283.01 K, 3574.6 kPa, x2 = 0.6929	0.000486 ± 1e-06
292.79 K, 3511.2 kPa, x2 = 0.0902	0.000513 ± 1e-06
292.89 K, 4229.6 kPa, x2 = 0.6099	0.000401 ± 1e-06
292.97 K, 1685.2 kPa, x2 = 0.6953	0.001289 ± 3e-06
292.97 K, 2524.4 kPa, x2 = 0.1499	0.000806 ± 2e-06
292.98 K, 1297.8 kPa, x2 = 0.5959	0.001709 ± 3e-06
292.98 K, 3279.6 kPa, x2 = 0.3585	0.00058 ± 1e-06
292.99 K, 3397 kPa, x2 = 0.7478	0.00056 ± 1e-06
292.99 K, 4597 kPa, x2 = 0.8378	0.00036 ± 1e-06
293.06 K, 2897.6 kPa, x2 = 0.4754	0.000669 ± 1e-06
293.06 K, 3153.2 kPa, x2 = 0.9071	0.000636 ± 1e-06
293.06 K, 3809.7 kPa, x2 = 0.6929	0.000486 ± 1e-06
293.11 K, 2651.8 kPa, x2 = 0.2607	0.00076 ± 2e-06
297.92 K, 4370.8 kPa, x2 = 0.6099	0.000401 ± 1e-06
298.04 K, 1323.7 kPa, x2 = 0.5959	0.001709 ± 3e-06
298.04 K, 2970.8 kPa, x2 = 0.4754	0.000669 ± 1e-06
298.04 K, 3235.8 kPa, x2 = 0.9071	0.000636 ± 1e-06
298.04 K, 3923.4 kPa, x2 = 0.6929	0.000486 ± 1e-06
298.05 K, 3617.5 kPa, x2 = 0.0902	0.000513 ± 1e-06
298.06 K, 3490.8 kPa, x2 = 0.7478	0.00056 ± 1e-06
299.02 K, 4795.1 kPa, x2 = 0.8378	0.00036 ± 1e-06
302.04 K, 2647.7 kPa, x2 = 0.1499	0.000807 ± 2e-06
303.02 K, 3458.7 kPa, x2 = 0.3585	0.00058 ± 1e-06
303.13 K, 2781.5 kPa, x2 = 0.2607	0.00076 ± 2e-06
307.87 K, 4646.1 kPa, x2 = 0.6099	0.000401 ± 1e-06
307.97 K, 3546.3 kPa, x2 = 0.3585	0.00058 ± 1e-06
308 K, 1375.9 kPa, x2 = 0.5959	0.00171 ± 3e-06
308 K, 1790.6 kPa, x2 = 0.6953	0.00129 ± 3e-06
308 K, 4148.1 kPa, x2 = 0.6929	0.000486 ± 1e-06
308.01 K, 3399.4 kPa, x2 = 0.9071	0.000637 ± 1e-06
308.02 K, 3818.3 kPa, x2 = 0.0902	0.000513 ± 1e-06
308.03 K, 3676.1 kPa, x2 = 0.7478	0.00056 ± 1e-06
308.07 K, 2845 kPa, x2 = 0.2607	0.00076 ± 2e-06
308.09 K, 5087.6 kPa, x2 = 0.8378	0.00036 ± 1e-06
308.13 K, 3117.6 kPa, x2 = 0.4754	0.00067 ± 1e-06
312.22 K, 2766.9 kPa, x2 = 0.1499	0.000807 ± 2e-06
317.84 K, 4915.4 kPa, x2 = 0.6099	0.000401 ± 1e-06
318.01 K, 2971.6 kPa, x2 = 0.2607	0.000761 ± 2e-06
318.02 K, 5401.8 kPa, x2 = 0.8378	0.000361 ± 1e-06
318.04 K, 3722.1 kPa, x2 = 0.3585	0.000581 ± 1e-06
318.05 K, 4013.5 kPa, x2 = 0.0902	0.000513 ± 1e-06
318.11 K, 1427.6 kPa, x2 = 0.5959	0.001711 ± 3e-06
318.11 K, 3261.7 kPa, x2 = 0.4754	0.00067 ± 1e-06
318.12 K, 1861.3 kPa, x2 = 0.6953	0.00129 ± 3e-06
318.12 K, 3563 kPa, x2 = 0.9071	0.000637 ± 1e-06
318.12 K, 4371.8 kPa, x2 = 0.6929	0.000486 ± 1e-06
318.13 K, 3860.5 kPa, x2 = 0.7478	0.00056 ± 1e-06
322.91 K, 5554.6 kPa, x2 = 0.8378	0.000361 ± 1e-06
323.11 K, 2885.7 kPa, x2 = 0.1499	0.000807 ± 2e-06
323.12 K, 5055.4 kPa, x2 = 0.6099	0.000401 ± 1e-06
327.94 K, 3893.1 kPa, x2 = 0.3585	0.000581 ± 1e-06
327.98 K, 3097.5 kPa, x2 = 0.2607	0.000761 ± 2e-06
328 K, 5712 kPa, x2 = 0.8378	0.000361 ± 1e-06
328.09 K, 1478.4 kPa, x2 = 0.5959	0.001712 ± 3e-06
328.09 K, 3404 kPa, x2 = 0.4754	0.00067 ± 1e-06
328.1 K, 1930.7 kPa, x2 = 0.6953	0.001291 ± 3e-06
328.1 K, 3722.5 kPa, x2 = 0.9071	0.000637 ± 1e-06
328.1 K, 4040.6 kPa, x2 = 0.7478	0.000561 ± 1e-06
328.1 K, 4589.4 kPa, x2 = 0.6929	0.000487 ± 1e-06
328.11 K, 4212.5 kPa, x2 = 0.0902	0.000514 ± 1e-06
328.11 K, 5188.2 kPa, x2 = 0.6099	0.000402 ± 1e-06
333.09 K, 3003.3 kPa, x2 = 0.1499	0.000808 ± 2e-06
333.1 K, 5868.1 kPa, x2 = 0.8378	0.000361 ± 1e-06
338.03 K, 4402.1 kPa, x2 = 0.0902	0.000514 ± 1e-06
338.07 K, 1529 kPa, x2 = 0.5959	0.001712 ± 3e-06
338.07 K, 4218.4 kPa, x2 = 0.7478	0.000561 ± 1e-06
338.07 K, 4804.3 kPa, x2 = 0.6929	0.000487 ± 1e-06
338.08 K, 1999.6 kPa, x2 = 0.6953	0.001291 ± 3e-06
338.08 K, 3880.7 kPa, x2 = 0.9071	0.000637 ± 1e-06
338.08 K, 4065.8 kPa, x2 = 0.3585	0.000581 ± 1e-06
338.09 K, 3223.8 kPa, x2 = 0.2607	0.000761 ± 2e-06
338.09 K, 5449.4 kPa, x2 = 0.6099	0.000402 ± 1e-06
338.11 K, 3545.6 kPa, x2 = 0.4754	0.000671 ± 1e-06
343.08 K, 3119.8 kPa, x2 = 0.1499	0.000808 ± 2e-06
343.08 K, 5578.9 kPa, x2 = 0.6099	0.000402 ± 1e-06
348.02 K, 4592.8 kPa, x2 = 0.0902	0.000514 ± 1e-06
348.05 K, 3346.9 kPa, x2 = 0.2607	0.000762 ± 2e-06
348.05 K, 3684.7 kPa, x2 = 0.4754	0.000671 ± 1e-06
348.06 K, 1579.5 kPa, x2 = 0.5959	0.001713 ± 3e-06
348.06 K, 2068.1 kPa, x2 = 0.6953	0.001292 ± 3e-06
348.06 K, 4036.9 kPa, x2 = 0.9071	0.000638 ± 1e-06
348.06 K, 4394.9 kPa, x2 = 0.7478	0.000561 ± 1e-06
348.06 K, 5017.1 kPa, x2 = 0.6929	0.000487 ± 1e-06
348.07 K, 4234.7 kPa, x2 = 0.3585	0.000582 ± 1e-06
353.04 K, 3235.1 kPa, x2 = 0.1499	0.000809 ± 2e-06
357.91 K, 4567 kPa, x2 = 0.7478	0.000561 ± 1e-06
357.95 K, 2135.6 kPa, x2 = 0.6953	0.001293 ± 3e-06
357.99 K, 1629.5 kPa, x2 = 0.5959	0.001714 ± 4e-06
357.99 K, 5226.8 kPa, x2 = 0.6929	0.000487 ± 1e-06
358.02 K, 3469.7 kPa, x2 = 0.2607	0.000762 ± 2e-06
358.02 K, 3823.2 kPa, x2 = 0.4754	0.000671 ± 1e-06
358.03 K, 4191.9 kPa, x2 = 0.9071	0.000638 ± 1e-06
358.04 K, 3292.6 kPa, x2 = 0.1499	0.000809 ± 2e-06
358.04 K, 4401.6 kPa, x2 = 0.3585	0.000582 ± 1e-06
